Assay results: patent publication US10196357B2, “Biaryl compositions and methods for modulating a kinase cascade” (Athenex, Inc., priority 2007, dated 2019)

Legend:
[1] = system: MOLT-4 (Adult lymphoblastic leukemia); test: growth inhibition, MOLT-4; assay type: cell-based, Human
[2] = system: Ba/F3 + BCR-Abl E225K mutant; test: MTT growth inhibition, Ba/F3 + BCR-Abl E225K; assay type: cell-based; conditions: 96 hrs
From the text: Cultures of Ba/F3 cells were also transfected to express wild-type (WT) Bcr-Abl, E255K mutation of Bcr-Abl, or T315I mutation of Bcr-Abl and cultured in 96-well plates in complete media without IL-3. The Ba/F3 cell line is rendered Gleevec resistant when the mutation in the Bcr/Abl tyrosine kinase […] is present. […] All assays are in triplicate.

ZAP70 Y319 = test: whole cell phosphorylation, ZAP70; assay type: cell-based; conditions: whole cells
Bcr/Abl &245 = test: whole cell phosphorylation, Bcr/Abl; assay type: cell-based; conditions: whole cells
JAK1 Y1022/1023 = test: whole cell phosphorylation, JAK1; assay type: cell-based; conditions: whole cells
769-P = test: renal tumor cell growth inhibition, 769-P; assay type: cell-based, Human; conditions: renal cell adenocarcinoma
Experimental: (§1) These GI50s were determined using standard tumor growth inhibition assays, similar to those described in detail in this Example 7.

H226 = test: MTT growth inhibition, Dasatinib-resistant H226; assay type: cell-based, human; conditions: H226, 8.0×10^3 cells/well, […] FBS, 78 Hr
Experimental: (§5) Cell proliferation/growth inhibition was assessed using MTT colorimetric assay.
(§6) On Day 3, 10 μL MTT (5 mg/mL) was added to each well. Cells were then incubated in the presence of MTT for 4 hours at 37° C., appropriate CO2 conditions. After this incubation period, 90 μL 10% SDS(+HCl) was added to each well to lyse cells and solubilize formazan. Cells were then incubated overnight at 37° C., appropriate CO2 conditions.
(§7) The OD570 was measured using microplate reader. Growth inhibition curves and EC50/IC50 was determined using GraphPad Prism 4 statistical software.

SW1088 = test: brain tumor cell growth inhibition, SW1088; assay type: cell-based, Human; conditions: SW1088, astrocytoma; read-out: IC50 (title: GI50)
[3] = system: CCRF-HSB-2 (Adult lymphoblastic leukemia); test: growth inhibition, CCRF-HSB-2; assay type: cell-based, Human; conditions: read-out: GI50
Caki-2 = test: renal tumor cell growth inhibition, Caki-2; assay type: cell-based, Human; conditions: Caki-2, clear cell carcinoma
Experimental: as §1

JAK2 Y1007/1008 = test: whole cell phosphorylation, JAK2; assay type: cell-based; conditions: whole cells
COLO-320DM = test: MTT growth inhibition, Dasatinib-resistant COLO-320DM; assay type: cell-based, human; conditions: 8.0×10^3 cells/well, […] FBS, 78 Hr
Experimental: as §5, §6, §7

[4] = system: PC3-MM2 prostate cancer cells; test: orthotopic prostate model for in vivo metastases; parameters: species or system Nu/Nu mice
Experimental: Nu/Nu mice (8-12 weeks of age) were injected with PC3-MM2 prostate cancer cells into the prostate as described previously in Pettaway et al., Clin Cancer Res 1996, 2:1627-1636, hereby incorporated herein by reference in its entirety. […] All mice were sacrificed by cervical dislocation on about day 42. Tumor volume (measured by caliper), weight, and incidence of regional (celiac or para-aortal) lymph node metastases were recorded.

U87 = test: brain tumor cell growth inhibition, U87; assay type: cell-based, Human; conditions: U87, glioblastoma; astrocytoma; read-out: IC50 (title: GI50)
GL261 = test: brain tumor cell growth inhibition, GL261; assay type: cell-based; conditions: GL261, mouse glioblastoma; read-out: IC50 (title: GI50)
SK-N-MC = test: brain tumor cell growth inhibition, SK-N-MC; assay type: cell-based, Human; conditions: neuroepithelioma, read-out: IC50 (title: GI50)
[5] = system: protein tyrosine kinases (PTKs); test: selectivity for protein tyrosine kinases in whole cells; assay type: cell-based; conditions: as compared to Dasatinib
From the text: The compounds of the invention are selective for protein tyrosine kinases (PTKs). […] SYF cells are mouse fibroblasts that lack the Src kinase family members Src, Yes and Fyn.

Lyn Y416 = test: whole cell phosphorylation, Lyn; assay type: cell-based; conditions: whole cells
SK-N-FI = test: brain tumor cell growth inhibition, SK-N-FI; assay type: cell-based, Human; conditions: neuroblastoma, read-out: IC50 (title: GI50)
Daoy = test: brain tumor cell growth inhibition, Daoy; assay type: cell-based, Human; conditions: desmoplastic cerebellar medulloblastoma, read-out: IC50 (title: GI50)
MAPK2(h) = MAPK2(h) (Homo sapiens, UniProt P28482); test: isolated kinase activity, MAPK2; assay type: biochemical; conditions: compound @ 10 μM
Chain of MAPK2(h) (P28482 whole entry): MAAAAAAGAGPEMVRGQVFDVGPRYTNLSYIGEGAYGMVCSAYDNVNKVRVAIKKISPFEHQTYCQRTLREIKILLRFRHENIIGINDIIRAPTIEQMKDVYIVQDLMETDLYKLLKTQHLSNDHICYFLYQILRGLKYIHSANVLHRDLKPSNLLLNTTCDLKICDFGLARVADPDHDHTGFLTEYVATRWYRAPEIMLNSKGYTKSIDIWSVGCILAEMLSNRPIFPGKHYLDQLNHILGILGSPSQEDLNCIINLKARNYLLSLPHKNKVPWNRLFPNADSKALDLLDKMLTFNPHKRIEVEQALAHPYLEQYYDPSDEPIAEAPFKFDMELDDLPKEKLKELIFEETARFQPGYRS
From the text: (§2) Table 8 illustrates percent activity of isolated kinases in the presence of the AstraZeneca ATP-competitive inhibitor (KX2-328, AZ-28) or KX2-391 relative to control (untreated) isolated kinases.

PI3 kinase = test: isolated kinase activity, PI3 kinase; assay type: biochemical; conditions: compound @ 10 μM
From the text: as §2

Lck(h) = Lck(h) (Homo sapiens, UniProt P06239); test: isolated kinase activity, Lck; assay type: biochemical; conditions: compound @ 10 μM
Chain of Lck(h) (P06239 whole entry): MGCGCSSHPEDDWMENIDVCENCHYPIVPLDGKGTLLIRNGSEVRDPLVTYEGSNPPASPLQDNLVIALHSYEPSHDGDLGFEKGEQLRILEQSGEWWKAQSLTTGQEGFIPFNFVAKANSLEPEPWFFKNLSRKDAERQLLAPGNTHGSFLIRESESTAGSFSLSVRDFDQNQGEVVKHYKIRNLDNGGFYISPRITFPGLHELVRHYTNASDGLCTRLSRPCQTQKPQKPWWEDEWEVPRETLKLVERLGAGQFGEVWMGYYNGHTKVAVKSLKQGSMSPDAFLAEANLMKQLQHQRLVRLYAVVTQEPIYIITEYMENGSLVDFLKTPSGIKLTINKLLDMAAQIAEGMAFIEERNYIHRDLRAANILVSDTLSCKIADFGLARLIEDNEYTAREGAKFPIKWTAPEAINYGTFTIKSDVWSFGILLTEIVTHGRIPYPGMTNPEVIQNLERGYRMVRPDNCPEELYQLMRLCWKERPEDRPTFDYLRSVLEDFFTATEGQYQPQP
From the text: as §2

Paxillin Y-31 = test: intracellular phosphorylation, Paxillin Y-31; assay type: cell-based; conditions: c-Src527F/NIH-3T3 cells
Experimental: (§3) HT29 (colon cancer) and c-Src527F/NIH-3T3 (Src transformed) cell lines were treated with KX2-391 or with AstraZeneca's ATP competitive Src inhibitor AZ28. AZ28 serves as a positive comparator to show what a validated Src inhibitor should do in these assays. After treatment with compound, cells were lysed, subjected to PAGE and probed with a battery of antibodies. […] In addition, off-target protein phosphorylation was also investigated. Further, induction of apoptosis was evaluated via Caspase 3 cleavage. Multiple doses of each compound were tested because the trends in response to increasing drug concentration are the most reliable indicator of activity.
(§4) The same range of multiples of the GI50 for AZ28 in these two cell lines was run as a comparison.

PDGFRβ(h) = PDGFRβ(h) (Homo sapiens, UniProt P09619); test: isolated kinase activity, PDGFRβ; assay type: biochemical; conditions: compound @ 10 μM
Chain of PDGFRβ(h) (P09619 33-1106): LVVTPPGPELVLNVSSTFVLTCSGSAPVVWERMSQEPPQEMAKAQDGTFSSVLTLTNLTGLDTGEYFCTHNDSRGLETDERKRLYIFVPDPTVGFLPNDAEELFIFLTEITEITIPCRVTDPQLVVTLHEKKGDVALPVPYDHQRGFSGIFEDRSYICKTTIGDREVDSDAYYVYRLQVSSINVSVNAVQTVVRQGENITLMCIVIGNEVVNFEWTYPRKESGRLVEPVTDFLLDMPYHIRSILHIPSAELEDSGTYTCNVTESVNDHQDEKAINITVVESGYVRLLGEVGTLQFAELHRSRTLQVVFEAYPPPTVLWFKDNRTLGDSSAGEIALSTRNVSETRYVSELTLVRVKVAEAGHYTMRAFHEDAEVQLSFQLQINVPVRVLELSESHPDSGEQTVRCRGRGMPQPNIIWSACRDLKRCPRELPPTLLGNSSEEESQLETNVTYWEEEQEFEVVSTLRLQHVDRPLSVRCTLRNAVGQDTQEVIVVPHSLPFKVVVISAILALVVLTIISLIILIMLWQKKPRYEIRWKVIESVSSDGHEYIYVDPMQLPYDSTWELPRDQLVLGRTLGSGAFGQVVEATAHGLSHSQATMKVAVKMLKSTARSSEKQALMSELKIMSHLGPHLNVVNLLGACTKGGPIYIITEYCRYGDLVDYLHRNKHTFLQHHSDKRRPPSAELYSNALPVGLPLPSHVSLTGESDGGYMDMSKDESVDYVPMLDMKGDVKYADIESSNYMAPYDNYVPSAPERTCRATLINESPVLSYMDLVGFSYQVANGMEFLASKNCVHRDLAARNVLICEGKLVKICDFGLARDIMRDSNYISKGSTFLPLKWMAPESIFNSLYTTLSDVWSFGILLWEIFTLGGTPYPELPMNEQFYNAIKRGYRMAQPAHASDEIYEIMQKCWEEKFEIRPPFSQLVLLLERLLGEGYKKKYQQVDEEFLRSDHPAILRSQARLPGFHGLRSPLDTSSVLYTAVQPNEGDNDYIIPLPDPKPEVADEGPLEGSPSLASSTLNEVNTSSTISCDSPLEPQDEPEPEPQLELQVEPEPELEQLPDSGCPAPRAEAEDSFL
From the text: as §2

IGF-1R(h) = IGF-1R(h) (Homo sapiens, UniProt P08069); test: isolated kinase activity, IGF-1R; assay type: biochemical; conditions: compound @ 10 μM
Chain of IGF-1R(h) (P08069 31-1367): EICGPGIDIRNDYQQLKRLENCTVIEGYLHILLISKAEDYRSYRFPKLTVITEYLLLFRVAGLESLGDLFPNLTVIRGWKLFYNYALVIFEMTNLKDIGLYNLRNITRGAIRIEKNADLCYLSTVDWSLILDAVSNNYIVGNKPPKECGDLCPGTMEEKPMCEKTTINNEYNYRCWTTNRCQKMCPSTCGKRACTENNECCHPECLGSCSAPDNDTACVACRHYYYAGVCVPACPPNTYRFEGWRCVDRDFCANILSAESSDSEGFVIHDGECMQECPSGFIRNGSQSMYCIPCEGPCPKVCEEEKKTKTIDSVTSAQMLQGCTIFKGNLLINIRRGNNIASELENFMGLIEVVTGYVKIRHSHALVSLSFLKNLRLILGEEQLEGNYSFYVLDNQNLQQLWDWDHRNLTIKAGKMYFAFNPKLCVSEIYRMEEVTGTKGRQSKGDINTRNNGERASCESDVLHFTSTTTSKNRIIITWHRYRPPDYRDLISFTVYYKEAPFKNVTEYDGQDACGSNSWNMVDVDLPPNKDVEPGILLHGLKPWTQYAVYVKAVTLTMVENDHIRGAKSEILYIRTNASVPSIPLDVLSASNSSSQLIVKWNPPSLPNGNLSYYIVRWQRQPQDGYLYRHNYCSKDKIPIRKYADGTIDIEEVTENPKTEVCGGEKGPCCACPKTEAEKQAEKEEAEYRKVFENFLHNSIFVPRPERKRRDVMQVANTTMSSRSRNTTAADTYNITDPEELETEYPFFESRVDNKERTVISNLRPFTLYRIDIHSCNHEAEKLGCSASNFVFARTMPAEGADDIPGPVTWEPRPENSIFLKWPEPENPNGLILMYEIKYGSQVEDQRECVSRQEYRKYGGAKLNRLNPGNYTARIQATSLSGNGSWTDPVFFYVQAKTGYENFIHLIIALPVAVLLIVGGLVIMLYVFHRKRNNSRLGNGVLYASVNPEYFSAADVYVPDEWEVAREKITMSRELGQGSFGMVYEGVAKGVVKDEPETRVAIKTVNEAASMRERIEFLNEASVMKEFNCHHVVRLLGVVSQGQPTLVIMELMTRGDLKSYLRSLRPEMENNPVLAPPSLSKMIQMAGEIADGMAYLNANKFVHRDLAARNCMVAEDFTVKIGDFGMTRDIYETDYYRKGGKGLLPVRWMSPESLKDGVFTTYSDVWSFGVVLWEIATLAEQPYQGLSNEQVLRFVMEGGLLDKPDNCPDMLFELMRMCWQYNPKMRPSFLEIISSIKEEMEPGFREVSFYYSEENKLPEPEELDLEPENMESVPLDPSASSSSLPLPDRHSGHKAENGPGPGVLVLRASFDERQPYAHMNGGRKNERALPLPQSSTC
From the text: as §2

EGFR(h) = EGFR(h) (Homo sapiens, UniProt P00533); test: isolated kinase activity, EGFR; assay type: biochemical; conditions: compound @ 10 μM
Chain of EGFR(h) (P00533 25-1210): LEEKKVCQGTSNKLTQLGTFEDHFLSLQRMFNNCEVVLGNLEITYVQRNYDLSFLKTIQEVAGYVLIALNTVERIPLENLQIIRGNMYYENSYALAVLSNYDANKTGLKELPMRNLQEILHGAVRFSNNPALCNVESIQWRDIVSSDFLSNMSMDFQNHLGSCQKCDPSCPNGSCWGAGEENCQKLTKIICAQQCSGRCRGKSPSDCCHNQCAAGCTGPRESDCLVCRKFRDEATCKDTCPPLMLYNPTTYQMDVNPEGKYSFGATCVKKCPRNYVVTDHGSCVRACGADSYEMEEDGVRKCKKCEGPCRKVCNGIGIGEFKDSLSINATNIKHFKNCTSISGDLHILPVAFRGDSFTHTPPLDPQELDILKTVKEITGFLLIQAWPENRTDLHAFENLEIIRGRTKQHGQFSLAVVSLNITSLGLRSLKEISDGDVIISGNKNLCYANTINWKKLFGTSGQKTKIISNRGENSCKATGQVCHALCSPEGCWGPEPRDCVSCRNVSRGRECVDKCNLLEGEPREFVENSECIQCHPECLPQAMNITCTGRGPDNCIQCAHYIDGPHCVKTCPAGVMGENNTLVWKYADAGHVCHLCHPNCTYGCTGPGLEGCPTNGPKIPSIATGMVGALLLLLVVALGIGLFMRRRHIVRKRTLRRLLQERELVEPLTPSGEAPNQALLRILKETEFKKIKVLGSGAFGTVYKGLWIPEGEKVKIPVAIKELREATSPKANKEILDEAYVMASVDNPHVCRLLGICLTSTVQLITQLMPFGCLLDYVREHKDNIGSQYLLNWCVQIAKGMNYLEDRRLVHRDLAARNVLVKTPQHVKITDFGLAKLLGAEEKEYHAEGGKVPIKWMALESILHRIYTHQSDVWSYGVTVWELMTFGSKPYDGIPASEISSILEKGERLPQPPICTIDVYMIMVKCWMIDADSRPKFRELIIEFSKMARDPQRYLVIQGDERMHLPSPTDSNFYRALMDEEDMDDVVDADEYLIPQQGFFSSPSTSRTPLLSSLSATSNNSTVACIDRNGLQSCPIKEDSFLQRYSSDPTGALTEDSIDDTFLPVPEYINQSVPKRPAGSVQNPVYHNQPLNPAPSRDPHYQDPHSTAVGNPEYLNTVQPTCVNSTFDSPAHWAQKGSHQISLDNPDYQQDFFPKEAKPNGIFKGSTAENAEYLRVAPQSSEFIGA
From the text: as §2

FAK Tyr 925 = test: intracellular phosphorylation, FAK Tyr 925; assay type: cell-based; conditions: whole cells
Experimental: as §3, §4
KX2-391 and AZ28 inhibited Src transphosphorylation.

Question: For O=C(Cc1ccc(-c2ccc(OCCN3CCOCC3)cc2)cn1)NCc1ccccc1 [KXO1], which GI50 [1] is on record?
Answer: 13 nM

Question: And the GI50 [2]?
Answer: 80 nM

Question: What about the “phosphorylation of ZAP70 Y319” value (ZAP70 Y319) of the same compound?
Answer: not inhibited

Question: And the “phosphorylation of Bcr/Abl &245” value (Bcr/Abl &245)?
Answer: inhibited less potently

Question: And the “phosphorylation of JAK1 Y1022/1023” value (JAK1 Y1022/1023)?
Answer: not inhibited

Question: What about the GI50 (769-P) of the same compound?
Answer: 45 nM

Question: And the IC50 (H226)?
Answer: 98 nM

Question: What about the IC80 (H226) of the same compound?
Answer: 277 nM

Question: What about the IC90 (H226) of the same compound?
Answer: 490 nM

Question: What about the IC50 (SW1088) of the same compound?
Answer: 76.1 nM

Question: What about the GI50 [3] of the same compound?
Answer: 12 nM

Question: And the GI50 (Caki-2)?
Answer: 39.2 nM

Question: And the “phosphorylation of JAK2 Y1007/1008” value (JAK2 Y1007/1008)?
Answer: not inhibited

Question: And the IC50 (COLO-320DM)?
Answer: 30 nM

Question: And the IC80 (COLO-320DM)?
Answer: 80 nM

Question: And the IC90 (COLO-320DM)?
Answer: 144 nM

Question: What about the LN metastasis ([4]; 5.0 mg/kg/day oral gavage) of the same compound?
Answer: 4/5

Question: And the Tumor incidence ([4]; 5.0 mg/kg/day oral gavage)?
Answer: 5/6

Question: And the “Tumor weight (g) Median” value ([4]; 5.0 mg/kg/day oral gavage)?
Answer: 1.16 g

Question: What about the LN metastasis ([4]; 10.0 mg/kg/day oral gavage) of the same compound?
Answer: 2/5

Question: And the Tumor incidence ([4]; 10.0 mg/kg/day oral gavage)?
Answer: 5/6

Question: And the “Tumor weight (g) Median” value ([4]; 10.0 mg/kg/day oral gavage)?
Answer: 0.35 g

Question: And the IC50 (U87)?
Answer: 33.1 nM

Question: What about the IC50 (GL261) of the same compound?
Answer: 13.7 nM

Question: And the IC50 (SK-N-MC)?
Answer: 5.8 nM

Question: And the “PTK selectivity in whole cells” value [5]?
Answer: very high PTK selectivity

Question: And the “phosphorylation of Lyn Y416” value (Lyn Y416)?
Answer: inhibited less potently

Question: What about the IC50 (SK-N-FI) of the same compound?
Answer: 1.7 nM

Question: What about the IC50 (Daoy) of the same compound?
Answer: 13.6 nM

Question: With O=C(Cc1ccc(-c2ccc(OCCN3CCOCC3)cc2)cn1)NCc1ccccc1 [KX2-391] as the compound, how does the “percent activity of isolated kinase relative to control” value (MAPK2(h)) read?
Answer: 112%

Question: What about the “percent activity of isolated kinase relative to control” value (PI3 kinase) of the same compound?
Answer: 100%

Question: What about the “percent activity of isolated kinase relative to control” value (Lck(h)) of the same compound?
Answer: 109%

Question: What about the “phosphorylation of Paxillin Y-31 (Src transphosphorylation)” value (Paxillin Y-31) of the same compound?
Answer: inhibited

Question: What about the “percent activity of isolated kinase relative to control” value (PDGFRβ(h)) of the same compound?
Answer: 110%

Question: And the “percent activity of isolated kinase relative to control” value (IGF-1R(h))?
Answer: 101%

Question: And the “percent activity of isolated kinase relative to control” value (EGFR(h))?
Answer: 134%

Question: And the “phosphorylation of FAK Tyr 925 (Src transphosphorylation)” value (FAK Tyr 925)?
Answer: inhibited
